Assay results taken from patent US9505745B2, “Enhancer of zeste homolog 2 inhibitors” (GlaxoSmithKline Intellectual Property (No.2) Limited, priority 2013, dated 2016).
Structures can show the parent of a compound that is named as a salt.

Key:
[1] = molecular target: T1, EZH2 within the PRC2 complex (Homo sapiens (Human), UniProt Q15910); assay: EZH2 methyltransferase SPA, biotinylated histone H3K27 peptide substrate (Assay Protocol 2); assay type: biochemical; details: 3H-SAM, ≦10 nM approaches limit of detection
Outline: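 Scintillation proximity read-out of 3H-methyl transfer onto biotinylated unmethylated H3K27 peptide (10 uM) captured on streptavidin beads; SAM 0.15 uM tritiated plus 2.85 uM cold.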

[2] = molecular target: T1, EZH2 within the PRC2 complex; assay: EZH2 methyltransferase SPA, mononucleosome substrate (Assay Protocol 1); assay type: biochemical; details: HeLa mononucleosome substrate, 3H-SAM, ≦10 nM approaches limit of detection
Protocol: Compounds contained herein were evaluated for their ability to inhibit the methyltransferase activity of EZH2 within the PRC2 complex. Human PRC2 complex was prepared by co-expressing each of the 5 member proteins (FLAG-EZH2, EED, SUZ12, RbAp48, AEBP2) in Sf9 cells followed by co-purification. Enzyme activity was measured in a scintillation proximity assay (SPA) where a tritiated methyl group is transferred from 3H-SAM to a lysine residue on Histone H3 of a mononucleosome, purified from HeLa cells. Mononucleosomes were captured on SPA beads and the resulting signal is read on a ViewLux plate reader.
Part A. Compound Preparation
• 1. Prepare 10 mM stock of compounds from solid in 100% DMSO. • 2. Set up an 11-point serial dilution (1:3 dilution, top concentration 10 mM) in 100% DMSO for each test compound in a 384 well plate leaving columns 6 and 18 for DMSO controls. • 3. Dispense 100 nL of compound from the dilution plate into reaction plates (Grenier Bio-One, 384-well, Cat#784075). Part B. Reagent Preparation Prepare the following solutions: • 1. 50 mM Tris-HCl, pH 8: Per 1 L of base buffer, combine 1 M Tris-HCl, pH 8 (50 mL) and distilled water (950 mL). • 2. 1× Assay Buffer: Per 10 mL of 1× Assay Buffer, combine 50 mM Tris-HCl, pH 8 (9958 uL), 1 M MgCl2 (20 uL), 2 M DTT (20 uL), and 10% Tween-20 (2 uL) to provide a final concentration of 50 mM Tris-HCl, pH 8, 2 mM MgCl2, 4 mM DTT, 0.002% Tween-20. • 3. 2× Enzyme Solution: Per 10 mL of 2× Enzyme Solution, combine 1× Assay Buffer and PRC2 complex to provide a final enzyme concentration of 10 nM. • 4. SPA Bead Suspension: Per 1 mL of SPA Bead Suspension, combine PS-PEI coated LEADSeeker beads (40 mg) and H2O (1 mL) to provide a final concentration of 40 mg/mL. • 5. 2× Substrate Solution: Per 10 mL of 2× Substrate Solution, combine 1× Assay Buffer (9728.55 uL), 800 ug/mL mononucleosomes (125 uL), 1 mM cold SAM (4 uL), and 7.02 uM 3H-SAM (142.45 uL; 0.55 mCi/mL) to provide a final concentration of 5 ug/mL nucleosomes, 0.2 uM cold SAM, and 0.05 uM 3H-SAM. • 6. 2.67× Quench/Bead Mixture: Per 10 mL of 2.67× Quench/Bead Mixture, combine ddH2O (9358 uL), 10 mM cold SAM (267 uL), 40 mg/mL Bead Suspension (375 uL) to provide a final concentration of 100 uM cold SAM and 0.5 mg/mL SPA beads. Part C. Assay Reaction in 384-well Grenier Bio-One Plates Compound Addition • 1. Dispense 100 nL/well of 100× Compound to test wells (as noted above). • 2. Dispense 100 nL/well of 100% DMSO to columns 6 & 18 for high and low controls, respectively. Assay • 1. Dispense 5 uL/well of 1× Assay Buffer to column 18 (low control reactions). • 2. Dispense 5 uL/well of 2× Enzyme Solution to columns 1-17, 19-24. • 3. Spin assay plates for ˜1 min at 500 rpm. • 4. Stack the assay plates, covering the top plate. • 5. Incubate the compound/DMSO with the enzyme for 30 min at room temperature. • 6. Dispense 5 uL/well of 2× Substrate Solution to columns 1-24. • 7. Spin assay plates for ˜1 min at 500 rpm. • 8. Stack the assay plates, covering the top plate. • 9. Incubate the assay plates at room temperature for 1 hour. Quench/Bead Addition • 1. Dispense 5 uL/well of the 3× Quench/Bead Mixture to columns 1-24. • 2. Seal the top of each assay plate with adhesive TopSeal. • 3. Spin assay plates for ˜1 min at 500 rpm. • 4. Equilibrate the plates for >20 min. Read plates • 1. Read the assay plates on the Viewlux Plate Reader utilizing the 613 nm emission filter with a 300 s read time.
Reagent addition can be done manually or with automated liquid handler. • The final DMSO concentration in this assay is 1%. • The positive control is in column 6; negative control is in column 18. • Final starting concentration of compounds is 100 µM. Results
Percent inhibition was calculated relative to the DMSO control for each compound concentration and the resulting values were fit using standard IC50 fitting parameters within the ABASE data fitting software package.

T1 sequence (Q15910 whole entry): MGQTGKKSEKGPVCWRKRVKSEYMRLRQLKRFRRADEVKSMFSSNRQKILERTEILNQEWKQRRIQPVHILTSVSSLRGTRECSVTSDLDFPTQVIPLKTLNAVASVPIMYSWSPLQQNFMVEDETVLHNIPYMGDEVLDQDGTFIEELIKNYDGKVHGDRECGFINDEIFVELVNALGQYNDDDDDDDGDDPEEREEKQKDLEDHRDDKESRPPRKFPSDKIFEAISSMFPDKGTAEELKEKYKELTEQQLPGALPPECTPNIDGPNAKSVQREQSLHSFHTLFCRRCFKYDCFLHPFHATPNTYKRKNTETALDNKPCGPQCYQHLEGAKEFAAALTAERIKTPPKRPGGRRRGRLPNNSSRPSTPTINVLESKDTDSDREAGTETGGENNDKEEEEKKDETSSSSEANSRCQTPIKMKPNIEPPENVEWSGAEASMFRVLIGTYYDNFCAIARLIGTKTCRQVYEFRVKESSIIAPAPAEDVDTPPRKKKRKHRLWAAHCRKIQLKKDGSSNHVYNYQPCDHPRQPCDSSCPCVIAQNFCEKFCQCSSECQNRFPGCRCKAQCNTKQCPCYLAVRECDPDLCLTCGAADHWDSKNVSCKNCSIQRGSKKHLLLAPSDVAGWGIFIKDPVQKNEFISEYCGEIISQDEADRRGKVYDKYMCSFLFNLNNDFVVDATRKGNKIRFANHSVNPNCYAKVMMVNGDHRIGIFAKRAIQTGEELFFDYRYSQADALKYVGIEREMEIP
T1 sequence (O75530 whole entry partner): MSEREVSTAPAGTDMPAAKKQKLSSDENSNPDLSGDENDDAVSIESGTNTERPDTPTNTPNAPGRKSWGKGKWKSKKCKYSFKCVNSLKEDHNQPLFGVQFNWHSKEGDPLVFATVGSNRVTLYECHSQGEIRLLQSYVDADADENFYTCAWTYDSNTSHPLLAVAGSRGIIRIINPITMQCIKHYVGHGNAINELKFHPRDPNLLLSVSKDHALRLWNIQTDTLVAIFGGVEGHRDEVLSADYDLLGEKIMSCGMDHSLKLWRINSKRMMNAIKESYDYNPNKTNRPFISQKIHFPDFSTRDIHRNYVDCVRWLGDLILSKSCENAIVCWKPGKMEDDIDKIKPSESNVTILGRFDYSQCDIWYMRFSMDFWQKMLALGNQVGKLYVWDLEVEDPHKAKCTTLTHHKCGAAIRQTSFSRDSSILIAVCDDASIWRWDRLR
T1 sequence (Q15022 whole entry partner): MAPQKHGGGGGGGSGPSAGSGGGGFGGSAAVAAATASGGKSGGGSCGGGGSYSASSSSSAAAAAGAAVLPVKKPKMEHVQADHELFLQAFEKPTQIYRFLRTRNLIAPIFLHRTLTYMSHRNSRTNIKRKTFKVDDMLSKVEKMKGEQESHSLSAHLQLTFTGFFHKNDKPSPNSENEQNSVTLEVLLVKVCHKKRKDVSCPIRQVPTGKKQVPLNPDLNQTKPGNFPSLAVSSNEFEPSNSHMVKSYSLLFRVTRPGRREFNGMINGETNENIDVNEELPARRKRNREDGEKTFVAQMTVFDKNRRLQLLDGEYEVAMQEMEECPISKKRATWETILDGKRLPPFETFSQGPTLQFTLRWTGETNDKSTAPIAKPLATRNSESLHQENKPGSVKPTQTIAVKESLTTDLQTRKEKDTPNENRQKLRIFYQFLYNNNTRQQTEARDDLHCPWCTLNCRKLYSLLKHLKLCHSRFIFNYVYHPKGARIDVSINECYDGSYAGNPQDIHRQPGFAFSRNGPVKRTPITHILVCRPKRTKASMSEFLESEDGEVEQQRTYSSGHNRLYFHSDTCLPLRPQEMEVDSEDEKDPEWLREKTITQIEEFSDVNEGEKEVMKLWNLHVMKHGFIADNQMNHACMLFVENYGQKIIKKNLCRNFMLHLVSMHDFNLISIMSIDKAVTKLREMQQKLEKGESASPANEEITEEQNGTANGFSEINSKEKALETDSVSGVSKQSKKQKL
T1 sequence (Q09028 whole entry partner): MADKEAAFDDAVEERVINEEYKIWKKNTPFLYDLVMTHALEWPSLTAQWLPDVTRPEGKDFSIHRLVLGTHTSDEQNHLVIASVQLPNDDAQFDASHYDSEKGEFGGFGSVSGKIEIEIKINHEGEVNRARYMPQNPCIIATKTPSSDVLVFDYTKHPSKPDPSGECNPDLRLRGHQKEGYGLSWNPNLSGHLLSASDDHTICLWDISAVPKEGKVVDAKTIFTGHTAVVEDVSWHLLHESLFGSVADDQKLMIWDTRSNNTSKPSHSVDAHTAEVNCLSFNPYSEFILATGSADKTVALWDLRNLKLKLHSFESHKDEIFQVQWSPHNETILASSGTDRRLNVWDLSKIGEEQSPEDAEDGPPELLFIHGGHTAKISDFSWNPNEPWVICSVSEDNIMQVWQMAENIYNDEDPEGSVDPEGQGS
T1 sequence (Q6ZN18 whole entry partner): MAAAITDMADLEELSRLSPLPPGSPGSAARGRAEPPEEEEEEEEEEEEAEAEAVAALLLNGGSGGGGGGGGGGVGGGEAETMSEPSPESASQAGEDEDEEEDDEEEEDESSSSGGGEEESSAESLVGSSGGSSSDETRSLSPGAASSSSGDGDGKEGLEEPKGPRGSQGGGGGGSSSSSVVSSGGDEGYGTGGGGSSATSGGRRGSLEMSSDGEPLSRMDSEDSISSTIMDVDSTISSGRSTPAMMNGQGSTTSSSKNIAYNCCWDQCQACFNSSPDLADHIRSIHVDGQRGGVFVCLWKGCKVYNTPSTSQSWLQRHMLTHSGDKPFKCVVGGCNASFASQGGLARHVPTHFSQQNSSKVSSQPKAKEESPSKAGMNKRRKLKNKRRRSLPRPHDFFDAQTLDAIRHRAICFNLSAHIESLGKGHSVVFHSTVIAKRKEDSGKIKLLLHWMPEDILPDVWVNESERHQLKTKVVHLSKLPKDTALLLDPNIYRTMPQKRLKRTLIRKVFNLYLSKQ

SMILES	IC50 [1] [nM]	IC50 [2] [nM]
Cc1cc(C)c(CNC(=O)c2csc(N3CCCC3C)c2C)c(=O)[nH]1 (centres unmarked) [Example 25, N-((4,6-Dimethyl-2-oxo-1,2-dihydropyridin-3-yl)methyl)-4-methyl-5-(2-methylpyrrolidin-1-yl)thiophene-3-carboxamide]	630	100
CCN(c1scc(C(=O)NCc2c(C)cc(C)[nH]c2=O)c1C)[C@H]1CC[C@@H](N(C)C)CC1 [Example 7, N-((4,6-dimethyl-2-oxo-1,2-dihydropyridin-3-yl)methyl)-5-(((cis)-4-(dimethylamino)cyclohexyl)(ethyl)amino)-4-methylthiophene-3-carboxamide]	20	≤ 10
Cc1cc(C)c(CNC(=O)c2csc(C(C)N3CCC(N(C)C)CC3)c2C)c(=O)[nH]1 (centres unmarked) [Example 27, N-((4,6-dimethyl-2-oxo-1,2-dihydropyridin-3-yl)methyl)-5-(1-(4-(dimethylamino)piperidin-1-yl)ethyl)-4-methylthiophene-3-carboxamide hydrochloride]	63	31
CCN(c1csc(C(=O)NCc2c(C)cc(C)[nH]c2=O)c1C)[C@H]1CC[C@H](N(C)C)CC1 [Example 4, N-((4,6-dimethyl-2-oxo-1,2-dihydropyridin-3-yl)methyl)-4-(((trans)-4-(dimethylamino)cyclohexyl)(ethyl)amino)-3-methylthiophene-2-carboxamide]	25	16
Cc1cc(C)c(CNC(=O)c2csc(C3CCCN3C3CCOCC3)c2C)c(=O)[nH]1 (centres unmarked) [Example 22, N-((4,6-Dimethyl-2-oxo-1,2-dihydropyridin-3-yl)methyl)-4-methyl-5-(1-(tetrahydro-2H-pyran-4-yl)pyrrolidin-2-yl)thiophene-3-carboxamide]	6310	398
CCN(c1scc(C(=O)NCc2c(C)cc(C)n(C)c2=O)c1C)[C@H]1CC[C@H](N(C)C)CC1 [Example 32, 5-(((trans)-4-(Dimethylamino)cyclohexyl)(ethyl)amino)-4-methyl-N-((1,4,6-trimethyl-2-oxo-1,2-dihydropyridin-3-yl)methyl)thiophene-3-carboxamide]	50	≤ 10
Cc1cc(C)c(CNC(=O)c2csc(C(O)C3CCN(C(=O)OC(C)(C)C)CC3)c2C)c(=O)[nH]1 (centres unmarked) [Example 20, tert-Butyl 4-((4-(((4,6-dimethyl-2-oxo-1,2-dihydropyridin-3-yl)methyl)carbamoyl)-3-methylthiophen-2-yl)(hydroxy)methyl)piperidine-1-carboxylate]	1590	158
